Results: patent publication US20060241122A1, “Combination therapy for the treatment of neoplasms” (priority 2003, published 2006)

Tests used:
[1] = tested on: non-small cell lung carcinoma A549 cells; test: Anti-proliferation assay (Alamar Blue metabolism), A549 cells; type: cell-based; conditions: 72 h
Procedure: Inhibition of proliferation was measured by anti-proliferation assay as described below after incubation with the test compound(s) for 72 hours.
(§1) The combination matrices were used immediately and discarded.
Cells were diluted in culture media such that 3,000 SKMEL-28 cells, or 1,500 cells for all the other cell lines, were delivered in 35 μl of media into each assay well. Assay plates were incubated for 16-24 hours 37° C.±0.5° C. with 5% CO2. […] Assay plates were further incubated for 72 hours at 37° C.±0.5° C. with 5% CO2. […] Alamar Blue metabolism was quantified by the amount of fluorescence intensity 3.5-5.0 hours after addition.
The percent inhibition (% I) for each well was calculated using the following formula: % I=[(avg. untreated wells−treated well)/(avg. untreated wells)]×100 The average untreated well value (avg. untreated wells) is the arithmetic mean of 40 wells from the same assay plate treated with vehicle alone.

[2] = tested on: human pancreatic cancer PANC1 cells; test: Anti-proliferation assay (Alamar Blue metabolism), PANC1 cells; type: cell-based; conditions: 72 h
From the text: as §1

[3] = tested on: human melanoma SKMEL-28 cells; test: Anti-proliferation assay (Alamar Blue metabolism), SKMEL-28 cells; type: cell-based; conditions: 72 h
From the text: as §1

[4] = tested on: human prostate cancer DU145 cells; test: Anti-proliferation assay (Alamar Blue metabolism), DU145 cells; type: cell-based; conditions: 72 h
From the text: as §1

[5] = tested on: human colorectal carcinoma HCT116 cells; test: Anti-proliferation assay (Alamar Blue metabolism), HCT116 cells; conditions: for Percent inhibition of Alamar Blue Metabolism in HCT116 cells: 72 h;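 on all read-outs here: cells in 384-well plates exposed to compound combination matrices for 72 h, Alamar Blue fluorescence read (excitation 530 nm), inhibition calculated against mean of vehicle-only wells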
Procedure: Stock solutions (1000×) of each compound were prepared in DMSO and stored at −20° C. Master stock plates of 2-fold or 4-fold serial dilutions of individual compounds were prepared in 384-well plates. Combination matrices of test compounds were generated from these master stock plates by dilution into growth media described above. […] The combination matrices were used immediately and discarded.
The anti-proliferation assays were performed in 384-well plates. […] Cells were diluted in culture media such that 3,000 SKMEL-28 cells, or 1,500 cells for all the other cell lines, were delivered in 35 μl of media into each assay well. Assay plates were incubated for 16-24 hours 37° C.±0.5° C. with 5% CO2. After incubation, 4.5 μl of 10× stock solutions from the combination matrices were added to 40 μl of culture media. Assay plates were further incubated for 72 hours at 37° C.±0.5° C. with 5% CO2. […] Alamar Blue metabolism was quantified by the amount of fluorescence intensity 3.5-5.0 hours after addition. Quantification, using an LJL Analyst AD reader (LJL Biosystems), was taken in the middle of the well with high attenuation, a 100 msec read time, an excitation filter at 530 nm, and an emission filter at 575 nm. For some experiments, quantification was performed using a Wallac Victor^2 reader. Measurements were taken at the top of the well with stabilized energy lamp control; a 100 msec read time, an excitation filter at 530 nm, and an emission filter at 590 nm.

CCC(C)n1ncn(-c2ccc(N3CCN(c4ccc(OCC5COC(Cn6cncn6)(c6ccc(Cl)cc6Cl)O5)cc4)CC3)cc2)c1=O (centres unmarked) [Itraconazole, itraconazole]
Percent inhibition of Alamar Blue Metabolism in A549 cells ([1]; itraconazole 0.87 μM + simvastatin at row conc. c1 (0-48 μM)): 13.5% | Percent inhibition of Alamar Blue Metabolism in A549 cells ([1]; itraconazole 7 μM + simvastatin at row conc. c1 (0-48 μM)): 4.0% | Percent inhibition of Alamar Blue Metabolism in A549 cells ([1]; itraconazole 14 μM + simvastatin at row conc. c1 (0-48 μM)): 13.3% | Percent inhibition of Alamar Blue Metabolism in A549 cells ([1]; itraconazole 28 μM + simvastatin at row conc. c1 (0-48 μM)): 13.9% | Percent inhibition of Alamar Blue Metabolism in PANC1 cells ([2]; Table 4: itraconazole 0.87 μM + simvastatin at row conc. c1 (0-48 μM)): 2.6% | Percent inhibition of Alamar Blue Metabolism in PANC1 cells ([2]; Table 4: itraconazole 7 μM + simvastatin at row conc. c1 (0-48 μM)): −2.6% | Percent inhibition of Alamar Blue Metabolism in PANC1 cells ([2]; Table 4: itraconazole 14 μM + simvastatin at row conc. c1 (0-48 μM)): 2.1% | Percent inhibition of Alamar Blue Metabolism in PANC1 cells ([2]; Table 4: itraconazole 28 μM + simvastatin at row conc. c1 (0-48 μM)): 1.7% | Percent inhibition of Alamar Blue Metabolism in PANC1 cells ([2]; Table 8: itraconazole 0.87 μM + atorvastatin at row conc. c1 (0-36 μM)): 9.8% | Percent inhibition of Alamar Blue Metabolism in PANC1 cells ([2]; Table 8: itraconazole 7 μM + atorvastatin at row conc. c1 (0-36 μM)): −0.6% | Percent inhibition of Alamar Blue Metabolism in PANC1 cells ([2]; Table 8: itraconazole 14 μM + atorvastatin at row conc. c1 (0-36 μM)): −4.4% | Percent inhibition of Alamar Blue Metabolism in PANC1 cells ([2]; Table 8: itraconazole 28 μM + atorvastatin at row conc. c1 (0-36 μM)): −2.5% | Percent inhibition of Alamar Blue Metabolism in PANC1 cells ([2]; Table 12: itraconazole 0.87 μM + fluvastatin at row conc. c1 (0-49 μM)): 4.9% | Percent inhibition of Alamar Blue Metabolism in PANC1 cells ([2]; Table 12: itraconazole 7 μM + fluvastatin at row conc. c1 (0-49 μM)): −1.9% | Percent inhibition of Alamar Blue Metabolism in PANC1 cells ([2]; Table 12: itraconazole 14 μM + fluvastatin at row conc. c1 (0-49 μM)): −8.1% | Percent inhibition of Alamar Blue Metabolism in PANC1 cells ([2]; Table 12: itraconazole 28 μM + fluvastatin at row conc. c1 (0-49 μM)): −3.7% | Percent inhibition of Alamar Blue Metabolism in SKMEL-28 cells ([3]; Table 5: itraconazole 0.87 μM + simvastatin at row conc. c1 (0-48 μM)): 1.0% | Percent inhibition of Alamar Blue Metabolism in SKMEL-28 cells ([3]; Table 5: itraconazole 7 μM + simvastatin at row conc. c1 (0-48 μM)): 13.5% | Percent inhibition of Alamar Blue Metabolism in SKMEL-28 cells ([3]; Table 5: itraconazole 14 μM + simvastatin at row conc. c1 (0-48 μM)): 19.3% | Percent inhibition of Alamar Blue Metabolism in SKMEL-28 cells ([3]; Table 5: itraconazole 28 μM + simvastatin (0-48 μM)): 16.7% | Percent inhibition of Alamar Blue Metabolism in SKMEL-28 cells ([3]; Table 9: itraconazole 0.87 μM + atorvastatin at row conc. c1 (0-36 μM)): 1.4% | Percent inhibition of Alamar Blue Metabolism in SKMEL-28 cells ([3]; Table 9: itraconazole 7 μM + atorvastatin at row conc. c1 (0-36 μM)): 11.2% | Percent inhibition of Alamar Blue Metabolism in SKMEL-28 cells ([3]; Table 9: itraconazole 14 μM + atorvastatin at row conc. c1 (0-36 μM)): 13.0% | Percent inhibition of Alamar Blue Metabolism in SKMEL-28 cells ([3]; Table 9: itraconazole 28 μM + atorvastatin at row conc. c1 (0-36 μM)): 13.5% | Percent inhibition of Alamar Blue Metabolism in SKMEL-28 cells ([3]; Table 13: itraconazole 0.87 μM + fluvastatin at row conc. c1 (0-49 μM)): 2.8% | Percent inhibition of Alamar Blue Metabolism in SKMEL-28 cells ([3]; Table 13: itraconazole 7 μM + fluvastatin at row conc. c1 (0-49 μM)): 11.3% | Percent inhibition of Alamar Blue Metabolism in SKMEL-28 cells ([3]; Table 13: itraconazole 14 μM + fluvastatin at row conc. c1 (0-49 μM)): 13.3% | Percent inhibition of Alamar Blue Metabolism in SKMEL-28 cells ([3]; Table 13: itraconazole 28 μM + fluvastatin at row conc. c1 (0-49 μM)): 16.3% | Percent inhibition of Alamar Blue Metabolism in DU145 cells ([4]; Table 6: itraconazole 0.87 μM + atorvastatin at row conc. c1 (0-36 μM)): 0.8% | Percent inhibition of Alamar Blue Metabolism in DU145 cells ([4]; Table 6: itraconazole 7 μM + atorvastatin at row conc. c1 (0-36 μM)): −3.5% | Percent inhibition of Alamar Blue Metabolism in DU145 cells ([4]; Table 6: itraconazole 14 μM + atorvastatin at row conc. c1 (0-36 μM)): −4.2% | Percent inhibition of Alamar Blue Metabolism in DU145 cells ([4]; Table 6: itraconazole 28 μM + atorvastatin at row conc. c1 (0-36 μM)): −8.8% | Percent inhibition of Alamar Blue Metabolism in DU145 cells ([4]; Table 10: itraconazole 0.87 μM + fluvastatin at row conc. c1 (0-49 μM)): 2.1% | Percent inhibition of Alamar Blue Metabolism in DU145 cells ([4]; Table 10: itraconazole 7 μM + fluvastatin at row conc. c1 (0-49 μM)): −7.4% | Percent inhibition of Alamar Blue Metabolism in DU145 cells ([4]; Table 10: itraconazole 14 μM + fluvastatin at row conc. c1 (0-49 μM)): −5.6% | Percent inhibition of Alamar Blue Metabolism in DU145 cells ([4]; Table 10: itraconazole 28 μM + fluvastatin at row conc. c1 (0-49 μM)): −9.0% | inhibition at 7 µM ([5]; Homo sapiens, HCT-116, read-out: Percent inhibition of Alamar Blue Metabolism, cerivastatin 0 μM, itraconazole 7 μM): 24.3% | inhibition at 28 µM ([5]; Homo sapiens, HCT-116, read-out: Percent inhibition of Alamar Blue Metabolism, cerivastatin 0 μM, itraconazole 28 μM): 27.7% | Percent inhibition of Alamar Blue Metabolism in HCT116 cells ([5]; Table 2: itraconazole 0.87 μM + simvastatin at row conc. c1 (0-48 μM)): 3.9% | Percent inhibition of Alamar Blue Metabolism in HCT116 cells ([5]; Table 2: itraconazole 7 μM + simvastatin at row conc. c1 (0-48 μM)): 18.9% | Percent inhibition of Alamar Blue Metabolism in HCT116 cells ([5]; Table 2: itraconazole 14 μM + simvastatin at row conc. c1 (0-48 μM)): 19.2% | Percent inhibition of Alamar Blue Metabolism in HCT116 cells ([5]; Table 2: itraconazole 28 μM + simvastatin at row conc. c1 (0-48 μM)): 18.6% | Percent inhibition of Alamar Blue Metabolism in HCT116 cells ([5]; Table 3: itraconazole 0.87 μM + simvastatin sodium at row conc. c1 (0-22 μM)): −10.7% | Percent inhibition of Alamar Blue Metabolism in HCT116 cells ([5]; Table 3: itraconazole 7 μM + simvastatin sodium at row conc. c1 (0-22 μM)): 12.2% | Percent inhibition of Alamar Blue Metabolism in HCT116 cells ([5]; Table 3: itraconazole 14 μM + simvastatin sodium at row conc. c1 (0-22 μM)): 10.6% | Percent inhibition of Alamar Blue Metabolism in HCT116 cells ([5]; Table 3: itraconazole 28 μM + simvastatin sodium at row conc. c1 (0-22 μM)): 17.2% | Percent inhibition of Alamar Blue Metabolism in HCT116 cells ([5]; Table 7: itraconazole 0.87 μM + atorvastatin at row conc. c1 (0-36 μM)): 1.7% | Percent inhibition of Alamar Blue Metabolism in HCT116 cells ([5]; Table 7: itraconazole 7 μM + atorvastatin at row conc. c1 (0-36 μM)): 17.4% | Percent inhibition of Alamar Blue Metabolism in HCT116 cells ([5]; Table 7: itraconazole 14 μM + atorvastatin at row conc. c1 (0-36 μM)): 18.1% | Percent inhibition of Alamar Blue Metabolism in HCT116 cells ([5]; Table 7: itraconazole 28 μM + atorvastatin at row conc. c1 (0-36 μM)): 18.6% | Percent inhibition of Alamar Blue Metabolism in HCT116 cells ([5]; Table 11: itraconazole 0.87 μM + fluvastatin at row conc. c1 (0-49 μM)): 2.2% | Percent inhibition of Alamar Blue Metabolism in HCT116 cells ([5]; Table 11: itraconazole 7 μM + fluvastatin at row conc. c1 (0-49 μM)): 18.9% | Percent inhibition of Alamar Blue Metabolism in HCT116 cells ([5]; Table 11: itraconazole 14 μM + fluvastatin at row conc. c1 (0-49 μM)): 20.2% | Percent inhibition of Alamar Blue Metabolism in HCT116 cells ([5]; Table 11: itraconazole 28 μM + fluvastatin at row conc. c1 (0-49 μM)): 20.4% | Percent inhibition of Alamar Blue Metabolism in HCT116 cells ([5]; Table 14: itraconazole 0.87 μM + lovastatin at row conc. c1 (0-48 μM)): 5.1% | Percent inhibition of Alamar Blue Metabolism in HCT116 cells ([5]; Table 14: itraconazole 7 μM + lovastatin at row conc. c1 (0-48 μM)): 17.8% | Percent inhibition of Alamar Blue Metabolism in HCT116 cells ([5]; Table 14: itraconazole 14 μM + lovastatin at row conc. c1 (0-48 μM)): 19.5% | Percent inhibition of Alamar Blue Metabolism in HCT116 cells ([5]; Table 14: itraconazole 28 μM + lovastatin at row conc. c1 (0-48 μM)): 20.7% | Percent inhibition of Alamar Blue Metabolism in HCT116 cells ([5]; Table 15: itraconazole 0.87 μM + lovastatin sodium at row conc. c1 (0-22 μM)): −10.9% | Percent inhibition of Alamar Blue Metabolism in HCT116 cells ([5]; Table 15: itraconazole 7 μM + lovastatin sodium at row conc. c1 (0-22 μM)): 18.0% | Percent inhibition of Alamar Blue Metabolism in HCT116 cells ([5]; Table 15: itraconazole 14 μM + lovastatin sodium at row conc. c1 (0-22 μM)): 15.1% | Percent inhibition of Alamar Blue Metabolism in HCT116 cells ([5]; Table 15: itraconazole 28 μM + lovastatin sodium at row conc. c1 (0-22 μM)): 9.1%
